Experimental findings from ChEMBL document CHEMBL3045211, “Acute and chronic anti-inflammatory evaluation of imidazo[1,2-a]pyridine carboxylic acid derivatives and docking analysis” (Med Chem Res, 2012) are described below.

Data set [1] addresses T1, Prostaglandin G/H synthase 1 (Homo sapiens, UniProt P23219). In words: Binding affinity to COX1 (unknown origin).
The target of data set [2] is T2, Prostaglandin G/H synthase 2 (Homo sapiens, UniProt P35354).
T2 sequence (P35354 whole entry): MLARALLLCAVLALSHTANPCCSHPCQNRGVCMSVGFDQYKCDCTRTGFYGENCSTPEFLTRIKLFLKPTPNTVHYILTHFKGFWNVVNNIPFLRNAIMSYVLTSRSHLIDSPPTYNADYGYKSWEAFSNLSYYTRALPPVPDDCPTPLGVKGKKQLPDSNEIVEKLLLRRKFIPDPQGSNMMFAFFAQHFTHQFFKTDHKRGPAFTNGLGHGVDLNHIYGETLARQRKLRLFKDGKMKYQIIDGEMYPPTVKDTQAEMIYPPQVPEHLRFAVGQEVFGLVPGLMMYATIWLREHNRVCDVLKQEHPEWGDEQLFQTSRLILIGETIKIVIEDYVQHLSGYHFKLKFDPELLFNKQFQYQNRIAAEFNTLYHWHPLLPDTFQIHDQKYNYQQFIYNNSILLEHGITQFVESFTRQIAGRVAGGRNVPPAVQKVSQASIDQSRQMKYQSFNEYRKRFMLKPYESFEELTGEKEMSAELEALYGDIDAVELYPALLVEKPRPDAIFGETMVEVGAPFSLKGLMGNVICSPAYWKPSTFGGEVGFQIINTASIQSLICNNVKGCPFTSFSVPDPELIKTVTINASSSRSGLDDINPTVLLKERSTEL
In words: Binding affinity to COX2 (unknown origin).

In data set [3] the test system is Rattus norvegicus. Briefly: Ulcerogenic activity in Rattus norvegicus Wistar (rat) stomach at 5 mg/kg, po relative to vehicle-treated control. It counts as toxicity, organism-based. Details: dose 5 mg/kg, route oral. The note with it: in vivo.
For data set [4], the system named is Rattus norvegicus. In words: Gastrointestinal toxicity in Rattus norvegicus Wistar (rat) duodenum assessed as appearance of redness at 5 mg/kg, po relative to vehicle-treated control. The note with it: in vivo. Details: dose 5 mg/kg, route oral. Format: organism-based.
Data set [5] concerns Rattus norvegicus. Briefly: Gastrointestinal toxicity in Rattus norvegicus Wistar (rat) stomach assessed as appearance of redness at 5 mg/kg, po relative to vehicle-treated control. Details: dose 5 mg/kg, route oral. The note with it: in vivo. Format: organism-based.
Data set [6] deals with Rattus norvegicus. Briefly: Toxicity in Rattus norvegicus Wistar (rat) assessed as mortality at 5 mg/kg, po administered for 7 days measured on day 8. Format: organism-based. Also noted: dose 5 mg/kg, route oral. Particulars: in vivo, 168 h.
Data set [7] concerns Rattus norvegicus. Briefly: Anti-inflammatory activity in Rattus norvegicus Wistar (rat) assessed as cotton pellet-induced final granuloma weight at 5 mg/kg, po administered for 7 days measured on day 8 (reference value: 110.3 +/- 8.7 mg). It counts as functional.
Data set [8] has as its system Rattus norvegicus. In words: Anti-inflammatory activity in Rattus norvegicus Wistar (rat) assessed as inhibition of carrageenan-induced paw edema administered for 1 hr followed by carrageenan challenge measured at 4 hr relative to control. It counts as functional. (In general: Carrageenan injected into the paw causes an acute inflammation.)
For data set [9], the system named is Rattus norvegicus. Briefly: Anti-inflammatory activity in Rattus norvegicus Wistar (rat) assessed as inhibition of carrageenan-induced paw edema administered for 1 hr followed by carrageenan challenge measured at 3 hr relative to control. It counts as functional.
The test system of data set [10] is Rattus norvegicus. In words: Anti-inflammatory activity in Rattus norvegicus Wistar (rat) assessed as inhibition of carrageenan-induced paw edema administered for 1 hr followed by carrageenan challenge measured at 2 hr relative to control. It counts as functional.
Data set [11] relates to Rattus norvegicus. Briefly: Anti-inflammatory activity in Rattus norvegicus Wistar (rat) assessed as inhibition of carrageenan-induced paw edema administered for 1 hr followed by carrageenan challenge measured at 1 hr relative to control. Format: functional.
For data set [12], the species on record is Rattus norvegicus. Briefly: Toxicity in Rattus norvegicus Wistar (rat). Format: organism-based. Particulars: in vivo.
Data set [13] deals with T1, Prostaglandin G/H synthase 1. Briefly: Inhibition of COX1 (unknown origin).
For data set [14], the system named is Rattus norvegicus. Briefly: Anti-inflammatory activity in Rattus norvegicus Wistar (rat) assessed as inhibition of carrageenan-induced paw edema at 10 mg/kg administered for 1 hr followed by carrageenan challenge measured at 1 hr relative to control. It counts as functional.
For data set [15], the system named is Rattus norvegicus. In words: Anti-inflammatory activity in Rattus norvegicus Wistar (rat) assessed as decrease in cotton pellet-induced final granuloma weight at 10 mg/kg, po administered for 7 days measured on day 8. It counts as functional, organism-based. Also noted: dose 10 mg/kg.
Data set [16] relates to Rattus norvegicus. In words: Anti-inflammatory activity in Rattus norvegicus Wistar (rat) assessed as decrease in cotton pellet-induced dry granuloma weight at 10 mg/kg, po administered for 7 days measured on day 8. Details: dose 10 mg/kg. It counts as functional, organism-based.
For data set [17], the system named is Rattus norvegicus. Briefly: Anti-inflammatory activity in Rattus norvegicus Wistar (rat) assessed as decrease in cotton pellet-induced wet granuloma weight at 10 mg/kg, po administered for 7 days measured on day 8. Format: functional, organism-based. Details: dose 10 mg/kg.
Data set [18] has as its system Rattus norvegicus. Briefly: Anti-inflammatory activity in Rattus norvegicus Wistar (rat) assessed as inhibition of carrageenan-induced paw edema at 10 mg/kg administered for 1 hr followed by carrageenan challenge measured at 4 hr relative to control. Format: functional.
Data set [19] deals with Rattus norvegicus. In words: Anti-inflammatory activity in Rattus norvegicus Wistar (rat) assessed as inhibition of carrageenan-induced paw edema at 10 mg/kg administered for 1 hr followed by carrageenan challenge measured at 3 hr relative to control. Format: functional.
For data set [20], the system named is Rattus norvegicus. In words: Anti-inflammatory activity in Rattus norvegicus Wistar (rat) assessed as inhibition of carrageenan-induced paw edema at 10 mg/kg administered for 1 hr followed by carrageenan challenge measured at 2 hr relative to control. Format: functional.
The target in data set [21] is T1, Prostaglandin G/H synthase 1. In words: Inhibition of COX1 (unknown origin) at 1 uM.
In data set [22] the test system is Rattus norvegicus. Briefly: Ulcerogenic activity in Rattus norvegicus Wistar (rat) stomach at 10 mg/kg, po relative to vehicle-treated control. Details: dose 10 mg/kg, route oral. Format: toxicity, organism-based. Particulars: in vivo.
The test system of data set [23] is Rattus norvegicus. In words: Gastrointestinal toxicity in Rattus norvegicus Wistar (rat) duodenum assessed as appearance of redness at 10 mg/kg, po relative to vehicle-treated control. Format: organism-based. Also noted: dose 10 mg/kg, route oral. Particulars: in vivo.
The target of data set [24] is T3, Prostaglandin G/H synthase 2 (Homo sapiens) (UniProt P35354).
T3 sequence (whole entry): T2 sequence (P35354 whole entry)
Briefly: Inhibition of COX2 (unknown origin) at 10 uM.

For data set [25], the system named is Rattus norvegicus. In words: Gastrointestinal toxicity in Rattus norvegicus Wistar (rat) stomach assessed as appearance of redness at 10 mg/kg, po relative to vehicle-treated control. It counts as organism-based. Details: dose 10 mg/kg, route oral. Particulars: in vivo.
The test system of data set [26] is Rattus norvegicus. In words: Anti-inflammatory activity in Rattus norvegicus Wistar (rat) assessed as cotton pellet-induced final granuloma weight at 10 mg/kg, po administered for 7 days measured on day 8 (reference value: 110.3 +/- 8.7 mg). It counts as functional.

Usually Kd stands for the free concentration of one partner at which half of the binding sites on the other are occupied at equilibrium, for simple one-to-one binding. Low values mean tighter binding, high ones weaker binding. As a reminder, the inhibition is the relative decrease from the control value, in per cent. As a reminder, the inhibition in vivo is the relative decrease from the control value, in per cent.

Activity calls are given as the source filed them. The rule behind the calls is not given here.

T1 sequence (P23219 whole entry): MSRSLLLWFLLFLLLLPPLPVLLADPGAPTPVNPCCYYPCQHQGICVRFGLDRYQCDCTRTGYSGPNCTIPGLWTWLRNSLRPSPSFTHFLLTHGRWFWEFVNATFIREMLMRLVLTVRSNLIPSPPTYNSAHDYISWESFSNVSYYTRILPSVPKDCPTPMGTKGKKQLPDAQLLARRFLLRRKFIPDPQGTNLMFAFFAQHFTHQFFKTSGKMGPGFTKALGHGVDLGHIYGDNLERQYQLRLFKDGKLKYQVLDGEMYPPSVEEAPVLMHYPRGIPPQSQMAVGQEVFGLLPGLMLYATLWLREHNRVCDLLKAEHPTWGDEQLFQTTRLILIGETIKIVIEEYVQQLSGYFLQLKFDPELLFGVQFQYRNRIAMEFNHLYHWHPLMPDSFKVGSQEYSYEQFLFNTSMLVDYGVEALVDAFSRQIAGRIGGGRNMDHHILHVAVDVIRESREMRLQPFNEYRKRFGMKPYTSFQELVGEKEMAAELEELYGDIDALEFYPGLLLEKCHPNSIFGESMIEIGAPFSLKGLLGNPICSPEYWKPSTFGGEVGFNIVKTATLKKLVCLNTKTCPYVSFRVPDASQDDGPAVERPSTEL

For `CC(C(=O)O)c1ccc(-c2cn3ccccc3n2)cc1` (stereo unspecified) [MIROPROFEN], the dissociation constant Kd in [1] is 185 nM; in data set [2], 48.1 nM.

`COc1ccc2c(c1)c(CC(=O)O)c(C)n2C(=O)c1ccc(Cl)cc1` [INDOMETHACIN]: the Activity result with Rattus norvegicus [3] was “Toxic”; in the data set with Rattus norvegicus [4] it was “Toxic”; in the data set with Rattus norvegicus [5], “Toxic”; in the data set with Rattus norvegicus [6], “Toxic”; with Rattus norvegicus [7] it was 42.3 mg. The “inhibition (INH)” value came out at 74.6% with Rattus norvegicus [8], 77.3% in the data set with Rattus norvegicus [9], 65.5% in the data set on Rattus norvegicus [10] and 62.6% in the data set with Rattus norvegicus [11].

`O=C(O)c1nc2ccccn2c1[N+](=O)[O-]` yielded an LD in the data set filed under Rattus norvegicus [12] of 1000 mg/kg. Besides, the inhibition entry in data set [13] was “inactive”. In addition, the inhibition in vivo at 10 mg/kg was determined as 57.2% in the data set with Rattus norvegicus [14], 14.2% in the data set with Rattus norvegicus [18], 24.4% in the data set on Rattus norvegicus [19] and 43.5% in the data set with Rattus norvegicus [20]. Further, the result in the data set on Rattus norvegicus [15], in the data set with Rattus norvegicus [16] and in the data set with Rattus norvegicus [17] was Active. Besides, the Kd in [1] is 15.6 nM; in data set [2] it was 50.1 nM.

Compound `O=C(O)c1cn2ccccc2n1` had an LD in the data set listed under Rattus norvegicus [12] of 1000 mg/kg. Besides, the inhibition in data set [21] stood at 15.6%. For the same compound, the inhibition in vivo at 10 mg/kg in the data set on Rattus norvegicus [14] came to 75.6%; in the data set with Rattus norvegicus [18], 74%; in the data set on Rattus norvegicus [19], 69.4%; in the data set with Rattus norvegicus [20], 62.5%. For the same compound, the result with Rattus norvegicus [15], in the data set on Rattus norvegicus [16] and in the data set with Rattus norvegicus [17] was Active. Also, the Kd in data set [1] turned out to be 1540 nM; in data set [2], 652 nM.

Regarding `Nc1c(C(=O)O)nc2ccccn12`, the LD in the data set filed under Rattus norvegicus [12] is 1000 mg/kg. Moreover, the Activity entry with Rattus norvegicus [22] is reported as “Non-toxic”; in the data set on Rattus norvegicus [23], “Non-toxic”; in the data set on Rattus norvegicus [25] it was “Non-toxic”; in the data set on Rattus norvegicus [26] it was 70.5 mg. In data set [13], the inhibition entry was “inactive”. In data set [24], this compound had an inhibition of 20%. In addition, the inhibition in vivo at 10 mg/kg is 61.3% with Rattus norvegicus [14], 73.2% in the data set on Rattus norvegicus [18], 80.3% with Rattus norvegicus [19] and 76.7% in the data set with Rattus norvegicus [20]. Also, the outcome in the data set on Rattus norvegicus [16] and in the data set with Rattus norvegicus [17] was Active. Further, the Kd turned out to be 262 nM in data set [1] and 448 nM in [2].

In turn, `CCOC(=O)c1nc2ccccn2c1[N+](=O)[O-]` displayed an LD in the data set filed under Rattus norvegicus [12] of 1000 mg/kg. The inhibition entry in data set [13] was “inactive”. The inhibition in vivo at 10 mg/kg in the data set with Rattus norvegicus [14] came out at 54.2%; in the data set on Rattus norvegicus [18], 14.2%; in the data set on Rattus norvegicus [19] it was 25.4%; with Rattus norvegicus [20], 43.1%. Besides, the Kd in data set [1] stood at 1040 nM; in data set [2] it was 227 nM.
